# Test results reported in the supplement of paper PMC11061612.
# Tests used:
# Test in all cases: combination Emax (second highest fraction inhibited in the dose matrix, 72 h); higher = more inhibition; extreme values may be limits of the assay
# [1] = system: TE-6 (Esophageal Squamous Cell Carcinoma)
# Outline: (§1)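 After 24 hours at 37°C and 5% CO2 in 1536-well plates, cells in DMEM/F12 or RPMI plus 10% FBS received two-drug dose matrices for 72 hours. Viability came from CellTiter-Glo 2.0 luminescence and was scaled as inhibition, anchored at 0 by vehicle wells and at 1 by blank wells. Combination Emax is taken as the second-highest inhibition in the matrix, and Bliss excess as the observed combination effect less EA + EB − EA·EB, with EA and EB the single-agent effects.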
# NCI-H2818 (Mesothelioma) = system: NCI-H2818 (Mesothelioma)
# Outline: as §1
# MEL-JUSO (Melanoma) = system: MEL-JUSO (Melanoma)
# Outline: as §1
# [2] = system: EVSA-T (Breast Carcinoma)
# Outline: as §1
# [3] = system: DiFi (Colorectal Carcinoma)
# Outline: as §1
# WIL2-NS (Non-Cancerous) = system: WIL2-NS (Non-Cancerous)
# Outline: as §1
# [4] = system: GR-ST (B-Lymphoblastic Leukemia)
# Outline: as §1
# [5] = system: SW837 (Colorectal Carcinoma)
# Outline: as §1
# [6] = system: K-562 (Chronic Myelogenous Leukemia)
# Outline: as §1
# [7] = system: P12-ICHIKAWA (T-Lymphoblastic Leukemia)
# Outline: as §1
# ES1 (Ewing's Sarcoma) = system: ES1 (Ewing's Sarcoma)
# Outline: as §1
# ES8 (Ewing's Sarcoma) = system: ES8 (Ewing's Sarcoma)
# Outline: as §1
# [8] = system: NCI-H847 (Small Cell Lung Carcinoma)
# Outline: as §1
# LN-18 (Glioblastoma) = system: LN-18 (Glioblastoma)
# Outline: as §1
# [9] = system: MKN28 (Gastric Carcinoma)
# Outline: as §1
# WM-115 (Melanoma) = system: WM-115 (Melanoma)
# Outline: as §1
# TC-71 (Ewing's Sarcoma) = system: TC-71 (Ewing's Sarcoma)
# Outline: as §1
# [10] = system: HDQ-P1 (Breast Carcinoma)
# Outline: as §1
# [11] = system: KYSE-180 (Esophageal Squamous Cell Carcinoma)
# Outline: as §1
# U251 (Low Grade Glioma) = system: U251 (Low Grade Glioma)
# Outline: as §1
SMILES,combination Emax [1],combination Emax (NCI-H2818 (Mesothelioma)),combination Emax (MEL-JUSO (Melanoma)),combination Emax [2],combination Emax [3],combination Emax (WIL2-NS (Non-Cancerous)),combination Emax [4],combination Emax [5],combination Emax [6],combination Emax [7],combination Emax (ES1 (Ewing's Sarcoma)),combination Emax (ES8 (Ewing's Sarcoma)),combination Emax [8],combination Emax (LN-18 (Glioblastoma)),combination Emax [9],combination Emax (WM-115 (Melanoma)),combination Emax (TC-71 (Ewing's Sarcoma)),combination Emax [10],combination Emax [11],combination Emax (U251 (Low Grade Glioma))
"C=CCn1c(=O)c2cnc(Nc3ccc(N4CCN(C)CC4)cc3)nc2n1-c1cccc(C(C)(C)O)n1 [AZD1775] + C1CN(CCC1(C(=O)N[C@@H](CCO)C2=CC=C(C=C2)Cl)N)C3=NC=NC4=C3C=CN4 [Capivasertib] (first compound max 3 µM, partner max 3 µM)",0.736,0.493,0.442,0.958,0.643,0.953,0.818,0.692,0.895,1,0.797,0.943,1,0.581,0.609,0.536,0.92,0.856,0.8,0.671
"CN(CCO)CC[C@H](CSc1ccccc1)Nc1ccc(S(=O)(=O)NC(=O)c2ccc(N3CCC([C@@H](O)c4ccccc4-c4ccc(Cl)cc4)CC3)cc2)cc1S(=O)(=O)C(F)(F)F [AZD4320] + C=CCn1c(=O)c2cnc(Nc3ccc(N4CCN(C)CC4)cc3)nc2n1-c1cccc(C(C)(C)O)n1 [AZD1775] (first compound max 1 µM, partner max 1 µM)",0.556,0.371,0.73,0.191,0.944,0.973,0.765,0.461,0.871,1,0.827,0.962,1,0.537,0.536,0.507,0.926,0.911,0.783,0.289
"CN(CCO)CC[C@H](CSc1ccccc1)Nc1ccc(S(=O)(=O)NC(=O)c2ccc(N3CCC([C@@H](O)c4ccccc4-c4ccc(Cl)cc4)CC3)cc2)cc1S(=O)(=O)C(F)(F)F [AZD4320] + CN(C)CCCOc1ccc(-c2ccc3ncc4c(c3c2)n(C2CCOCC2)c(=O)n4C)cn1 [AZD0156] (first compound max 1 µM, 7x7, partner max 1 µM)",0.391,0.268,0.212,0.163,0.608,0.22,0.175,0.191,0.345,1,0.226,0.64,1,0.222,0.0805,0.363,0.659,0.465,0.112,0.185
"CN(CCO)CC[C@H](CSc1ccccc1)Nc1ccc(S(=O)(=O)NC(=O)c2ccc(N3CCC([C@@H](O)c4ccccc4-c4ccc(Cl)cc4)CC3)cc2)cc1S(=O)(=O)C(F)(F)F [AZD4320] + C[C@@H]1COCCN1C2=NC(=NC(=C2)C3(CC3)[S@](=N)(=O)C)C4=C5C=CNC5=NC=C4 [AZD6738] (first compound max 1 µM, 7x7, partner max 10 µM)",0.792,0.567,0.642,0.213,0.954,0.985,0.745,0.585,0.88,1,0.942,1,1,0.847,0.442,0.769,1,0.745,0.747,0.534
"CN(CCO)CC[C@H](CSc1ccccc1)Nc1ccc(S(=O)(=O)NC(=O)c2ccc(N3CCC([C@@H](O)c4ccccc4-c4ccc(Cl)cc4)CC3)cc2)cc1S(=O)(=O)C(F)(F)F [AZD4320] + C[C@@H](Nc1cc(F)cc(F)c1)c1cc(C(=O)N(C)C)cc2c(=O)cc(N3CCOCC3)oc12 [AZD8186] (first compound max 1 µM, 7x7, partner max 3 µM)",0.563,0.365,0.428,0.885,0.961,0.652,0.537,0.395,0.313,1,0.725,0.99,1,0.555,0.263,0.914,1,0.787,0.177,0.635
"CN(CCO)CC[C@H](CSc1ccccc1)Nc1ccc(S(=O)(=O)NC(=O)c2ccc(N3CCC([C@@H](O)c4ccccc4-c4ccc(Cl)cc4)CC3)cc2)cc1S(=O)(=O)C(F)(F)F [AZD4320] + Cc1cc2ncnn2cc1Nc1ncc2c(n1)n(C1CCOCC1)c(=O)n2C [AZD7648] (first compound max 1 µM, 7x7, partner max 10 µM)",0.524,0.364,0.181,0.191,0.784,0.335,0.371,0.201,0.17,1,0.355,0.57,1,0.204,0.153,0.489,0.593,0.522,0.0754,0.118
